Earlier results as cited in paper PMC6385854, “Structural insights reveal a recognition feature for tailoring hydrocarbon stapled-peptides against the eukaryotic translation initiation factor 4E protein” (Chemical Science, 2019).

Test system: eIF4E
Conditions: small molecule inhibitor of the eIF4E/eIF4G interaction; cited from earlier work
From the text: We have previously used structure-based rational design and optimization strategies to develop the first generation of hydrocarbon stapled-peptides against eIF4E.[20] These are the only compounds currently reported in the literature that are able to bind to the protein-binding interface of eIF4E with nanomolar affinity. […] Moreover, it was recently shown that 4EGI-1 binds to a non-canonical site on eIF4E and allosterically regulates the binding prop ... || The previously optimized 12mer stapled-peptide (sTIP-04: ^1KKRYSR*QLL*L^12)[20] (Fig. 1) was used as a template for the derivation of two different i, i + 4 hydrocarbon stapled-peptides: (i) (sTIP-05: ^1KKRYSR*QLL*F^12) with an L12F substitution at the C-terminus and, (ii) (sTIP-06: ^1RIIYSR*QLL*L^12) with an “RII^3” substitution at the N-terminus, based on the 4EBP protein epitope.[12] These derivatives were designed to incorporate different chemical features with the anticipation to induce favorable cellular activity. Both peptides were synthesized and their binding affinity for eIF4E was de ...

| SMILES | Affinity for eIF4E |
| --- | --- |
| O=C(O)C(Cc1ccccc1[N+](=O)[O-])=NNc1nc(-c2ccc(Cl)c(Cl)c2)cs1 (mixture of isomers) [Peptide 4EGI-1, 4EGI-1] | micromolar range |
| O=C(O)c1ccc(N2C(=O)/C(=C\c3ccc(-c4ccc([N+](=O)[O-])cc4)o3)C=C2c2ccccc2)cc1 [Peptide 4E1RCat, 4E1RCat] | micromolar range |
